Patent publication US20080312435A1, “Imine Compound” (TAISHO PHARMACEUTICAL CO., LTD., priority 2004, published 2008)

Tests used:
human CB2 receptor = target: T1, human CB2 receptor (Homo sapiens, UniProt P34972); experiment: Human CB2 receptor binding inhibition test ([3H]CP-55,940, CHO membrane fractions); settings: [3H]CP-55,940, membrane fractions of CHO cells stably expressing human CB2 receptor, 25° C., 2 hours; read-out: CB2 IC50 (Inhibition of binding to human CB2 receptor)
T1 construct: expressed in transfected cells
Excerpt: Human CB2 Receptor Binding Inhibition Test
First, cDNA sequence (Munro et al., Nature, 1993, 365, 61-65) encoding a human CB2 receptor was inserted in the forward direction in an animal-cell expression vector, pTARGET Vector (manufactured by Promega) at a region downstream of a CMV promoter. Host cells CHO-DHFR(−) were transfected with the obtained expression vector with the aid of Lipofectamine (manufactured by Invitrogen) to obtain cells capable of stably expressing the CB2 receptor.
After the filtrate was washed with an assay buffer containing 0.1% bovine serum albumin, the radioactivity on the glass filter was measured by a liquid scintillation counter. Nonspecific binding was measured in the presence of 2.0 μM CP-55,940 (manufactured by Tocris). 50% inhibitory concentration (IC50 value) of the test compound for the specific binding was obtained.

T1 sequence (P34972 whole entry): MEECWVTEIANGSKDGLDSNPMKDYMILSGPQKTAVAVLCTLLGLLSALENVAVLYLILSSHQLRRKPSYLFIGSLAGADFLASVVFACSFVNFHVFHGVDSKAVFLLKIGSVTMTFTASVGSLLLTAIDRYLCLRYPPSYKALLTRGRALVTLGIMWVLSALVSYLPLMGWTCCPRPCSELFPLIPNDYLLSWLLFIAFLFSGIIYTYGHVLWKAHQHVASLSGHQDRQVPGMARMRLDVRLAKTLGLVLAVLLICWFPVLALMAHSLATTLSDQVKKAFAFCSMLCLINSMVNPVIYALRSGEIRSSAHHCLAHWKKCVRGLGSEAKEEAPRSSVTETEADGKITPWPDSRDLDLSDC

SMILES	IC50 (human CB2 receptor) [nM]	melting point [°C]
Cc1c(C(C)(C)C)s/c(=N\C(=O)c2cc(F)ccc2C(F)(F)F)n1C [compound 143]	7.4	83 to 85
Cc1ccc(F)c(C(=O)/N=c2\sc(C(C)(C)C)c(C)n2C)c1F [compound 144]	4.3	140 to 142
COc1ccc(Cl)cc1C(=O)/N=c1\sc(C(C)(C)C)c(C)n1C [compound 146]	6.6	177 to 179
COc1cc(Cl)ccc1C(=O)/N=c1\sc(C(C)(C)C)c(C)n1C [compound 147]	9.6	117 to 119
Cc1c(C(C)(C)C)s/c(=N\C(=O)C(F)(F)C(F)(F)C(F)(F)F)n1C [compound 149]	12.2	180 to 182
CCn1c(C)c(C(C)(C)C)s/c1=N\C(=O)c1ccccc1C(F)(F)F [compound 151]	3.2	74 to 76
CCn1c(C)c(C(C)(C)C)s/c1=N\C(=O)c1ccccc1OC(F)(F)F [compound 153]	17.8	104 to 105
CCn1c(C)c(C(C)(C)C)s/c1=N\C(=O)c1cc(Br)ccc1F [compound 154]	5.9	105 to 106
CCn1c(C)c(C(C)(C)C)s/c1=N\C(=O)c1cc(F)ccc1Br [compound 155]	4.3	115 to 116
CCn1c(C)c(C(C)(C)C)s/c1=N\C(=O)c1ccc(F)cc1Br [compound 156]	11.4	99 to 100
CCn1c(C)c(C(C)(C)C)s/c1=N\C(=O)c1cc(I)ccc1F [compound 157]	12.1	87 to 89
CCn1c(C)c(C(C)(C)C)s/c1=N\C(=O)c1cc(Cl)ccc1Cl [compound 158]	7.1	127 to 128
CCn1c(C)c(C(C)(C)C)s/c1=N\C(=O)c1cc(F)c(F)cc1Cl [compound 159]	8.4	107 to 108
CCn1c(C)c(C(C)(C)C)s/c1=N\C(=O)c1cc(F)c(Cl)cc1Cl [compound 160]	8.5	112 to 114
CCn1c(C)c(C(C)(C)C)s/c1=N\C(=O)c1cc(F)ccc1C [compound 161]	9.7	108 to 109
CCn1c(C)c(C(C)(C)C)s/c1=N\C(=O)c1ccc(Cl)cc1C [compound 162]	12	125 to 126
CCn1c(C)c(C(C)(C)C)s/c1=N\C(=O)c1ccc(C)cc1Br [compound 163]	14.9	100 to 102
CCn1c(C)c(C(C)(C)C)s/c1=N\C(=O)c1cc(F)ccc1C(F)(F)F [compound 164]	4.1	103 to 104
CCn1c(C)c(C(C)(C)C)s/c1=N\C(=O)c1cccc(C(F)(F)F)c1F [compound 165]	4.3	97 to 99
CCn1c(C)c(C(C)(C)C)s/c1=N\C(=O)c1cc(Cl)ccc1OC [compound 167]	4.6	108 to 109

SMILES	IC50 (human CB2 receptor) [nM]	melting point [°C]
CCn1c(C)c(C(C)(C)C)s/c1=N\C(=O)c1cnccc1C(F)(F)F [compound 170]	13.8	110 to 112
CCn1c(C)c(C(C)(C)C)s/c1=N\C(=O)c1cc(C(F)(F)F)ccc1OC(F)F [compound 174]	11.7	95 to 97
Cc1cccc(C(=O)/N=c2\sc(C(C)(C)C)c(C)n2CC2CC2)c1 [compound 179]	17.8	132 to 134
Cc1c(C(C)(C)C)s/c(=N\C(=O)c2ccccc2F)n1CC1CC1 [compound 185]	11	182 to 183
Cc1c(C(C)(C)C)s/c(=N\C(=O)c2cccc(I)c2)n1CC1CC1 [compound 192]	13.2	114 to 115
COc1cccc(C(=O)/N=c2\sc(C(C)(C)C)c(C)n2CC2CC2)c1 [compound 194]	19.1	108 to 109
Cc1c(C(C)(C)C)s/c(=N\C(=O)c2cccc(OC(F)(F)F)c2)n1CC1CC1 [compound 196]	7.6	106 to 108
Cc1c(C(C)(C)C)s/c(=N\C(=O)c2cccc(OC(F)(F)C(F)F)c2)n1CC1CC1 [compound 198]	2.7	109 to 111
CNc1ccccc1C(=O)/N=c1\sc(C(C)(C)C)c(C)n1CC1CC1 [compound 200]	15.1	158 to 159
Cc1c(C(C)(C)C)s/c(=N\C(=O)c2cccc(N(C)C)c2)n1CC1CC1 [compound 201]	19.1	128 to 130
Cc1c(C(C)(C)C)s/c(=N\C(=O)c2cccc([N+](=O)[O-])c2)n1CC1CC1 [compound 209]	1.4	87 to 89
Cc1c(C(C)(C)C)s/c(=N\C(=O)c2ccc(C#N)cc2)n1CC1CC1 [compound 210]	15.7	125 to 126
Cc1ccc(C(=O)/N=c2\sc(C(C)(C)C)c(C)n2CC2CC2)c(C)c1 [compound 216]	1.7	100 to 101
Cc1ccc(C)c(C(=O)/N=c2\sc(C(C)(C)C)c(C)n2CC2CC2)c1 [compound 217]	2.6	106 to 107
Cc1cccc(C)c1C(=O)/N=c1\sc(C(C)(C)C)c(C)n1CC1CC1 [compound 218]	5.7	98 to 100
Cc1c(C(C)(C)C)s/c(=N\C(=O)c2cc(C(F)(F)F)ccc2C(F)(F)F)n1CC1CC1 [compound 220]	3.9	159 to 161
Cc1c(C(C)(C)C)s/c(=N\C(=O)c2cc(F)ccc2F)n1CC1CC1 [compound 221]	15.6	170 to 172
Cc1c(C(C)(C)C)s/c(=N\C(=O)c2ccc(F)cc2F)n1CC1CC1 [compound 224]	13	111 to 112
Cc1c(C(C)(C)C)s/c(=N\C(=O)c2ccc(Cl)cc2F)n1CC1CC1 [compound 226]	7.7	108 to 110
Cc1c(C(C)(C)C)s/c(=N\C(=O)c2ccc(Br)cc2F)n1CC1CC1 [compound 227]	8.2	121 to 131

SMILES	IC50 (human CB2 receptor) [nM]	melting point [°C]
Cc1c(C(C)(C)C)s/c(=N\C(=O)c2cc(Br)ccc2F)n1CC1CC1 [compound 230]	1.5	113 to 114
Cc1c(C(C)(C)C)s/c(=N\C(=O)c2cc(I)ccc2F)n1CC1CC1 [compound 231]	3	95 to 96
COc1ccc(OC)c(C(=O)/N=c2\sc(C(C)(C)C)c(C)n2CC2CC2)c1 [compound 234]	0.7	83 to 85
CCOc1ccc(OCC)c(C(=O)/N=c2\sc(C(C)(C)C)c(C)n2CC2CC2)c1 [compound 238]	4.4	97 to 99
Cc1ccc(F)c(C(=O)/N=c2\sc(C(C)(C)C)c(C)n2CC2CC2)c1 [compound 239]	2.4	117 to 119
Cc1ccc(F)cc1C(=O)/N=c1\sc(C(C)(C)C)c(C)n1CC1CC1 [compound 241]	1	91 to 93
Cc1cc(Cl)ccc1C(=O)/N=c1\sc(C(C)(C)C)c(C)n1CC1CC1 [compound 242]	4	108 to 109
Cc1cccc(Cl)c1C(=O)/N=c1\sc(C(C)(C)C)c(C)n1CC1CC1 [compound 244]	3.2	159 to 160
Cc1cccc(Br)c1C(=O)/N=c1\oc(C(C)(C)C)c(C)n1CC1CC1 [compound 248]	5.6	89 to 90
Cc1c(C(C)(C)C)s/c(=N\C(=O)c2cc(C(F)(F)F)ccc2F)n1CC1CC1 [compound 251]	3.4	113 to 115
Cc1c(C(C)(C)C)s/c(=N\C(=O)c2cc(F)ccc2C(F)(F)F)n1CC1CC1 [compound 254]	1.4	110 to 112
Cc1c(C(C)(C)C)s/c(=N\C(=O)c2cc(C(F)(F)F)ccc2Cl)n1CC1CC1 [compound 257]	1.3	100 to 102
Cc1c(C(C)(C)C)s/c(=N\C(=O)c2cc(Br)ccc2OC(F)F)n1CC1CC1 [compound 266]	0.8	169 to 170
CCOc1ccc(C(F)(F)F)cc1C(=O)/N=c1\sc(C(C)(C)C)c(C)n1CC1CC1 [compound 268]	1.1	140 to 142
Cc1c(C(C)(C)C)s/c(=N\C(=O)c2cc(C(F)(F)F)ccc2OC(C)C)n1CC1CC1 [compound 269]	3.6	106 to 108
COCCOc1ccc(C(F)(F)F)cc1C(=O)/N=c1\sc(C(C)(C)C)c(C)n1CC1CC1 [compound 270]	0.7	108 to 110
Cc1c(C(C)(C)C)s/c(=N\C(=O)C2=C(NCCO)C=CC(C(F)(F)F)C2)n1CC1CC1 (stereo not shown) [compound 272]	5	131 to 133
CCN(C)c1ccc(C(F)(F)F)cc1C(=O)/N=c1\sc(C(C)(C)C)c(C)n1CC1CC1 [compound 274]	13.2	101 to 103
Cc1c(C(C)(C)C)s/c(=N\C(=O)c2cc(C(F)(F)F)ccc2N(C)C)n1CC1CC1 [compound 277]	9	126 to 128
